According to US6413937B1, “Combinations for use in increasing the potency of a substrate for multidrug resistance related protein” (Dublin City University and Enterprise Ireland, priority 1996, dated 2002):

Columns and labels:
A549 cell line = assay: miniaturised in vitro colorimetric cell survival assay (acid phosphatase end-point), A549; assay type: cell-based, human; details: for % cell survival: alone or + Adriamycin 20 ng/ml
Procedure: (§1) All the results presented in this Example for the DLKP, A549 and OAW42-SR cell lines were derived using the same miniaturised in vitro calorimetric assay system. On Day 1 of the assay 1000 cells/well/100 μl were plated into 96-well plates. Cells were allowed to attach overnight and cell viability was visually assessed. […] NSAID plus chemotherapeutic drug) to be analysed were added onto the cells. The individual drugs were added separately in 50 μl quantities (4× stocks, to take into account the dilution effect of having 200 μl final volume in each well). The drugs were left on the cells for five further days (Day 7) and cell number was determined using the acid phosphatase end-point assay which uses p-nitrophenol phosphate as substrate (Martin, A. and Clynes, M. (1991) In Vitro Dev. Biol., 27A, 183-184). On Day 7 the culture medium was removed from the cells and they were washed once with phosphate buffered saline (PBS). […] After the incubation period 50 μl of 1N NaOH was added to each well to develop the colour. The plates were then read at 405 nm (reference 620 nm) on an ELISA plate-reader. […] All results are the cell survival means ±S.D. from a minimum of three experiments.

SP2 mouse myeloma cells = assay: mouse tumour model, survival of Balb/c mice injected with SP2 cells; assay type: in vivo; details: groups of 8 Balb/c mice; i.p. once a day, five days a week; adriamycin 0.25 mg/kg, tolmetin 70 mg/kg; after 32 days
Procedure: The in vivo relevance of our findings was studied using a mouse tumour model. SP2 tumour cells were injected into 4 groups of mice. Groups of 8 male Balb/c mice 8 weeks old were maintained on normal diets. Animals were injected with 2 million SP2 mouse myeloma cells on day 1. On day 3 intraperitoneal injection with adriamycin, tolmetin or a combination of the two was begun. This continued once a day, five days a week for a total of 32 days. The agents were dissolved in PBS and prepared freshly twice per week. The animals were weighed and the average weight of the group was used to calculate the required concentration of the drugs. Adriamycin was administered to give a final concentration of 0.25 mg/kg, the tolmetin dose was 70 mg/kg. […] The results were expressed as the number of animals alive each day as a percentage of the original number of animals alive.
Group 1 received injections of the vehicle (PBS) alone, group 2, adriamycin at 0.25 mg/kg, group 3, tolmetin at 70 mg/kg and group 4 received both agents (adriamycin, 0.25 mg/kg and tolmetin, 70 mg/kg). After 32 days there were clear differences in the % survival between the groups (FIG. 5). […] Two mice remained in the adriamycin group but 5 survived to the end of the experiment from the combination group (group 4).

DLKP cell line = assay: miniaturised in vitro colorimetric cell survival assay (acid phosphatase end-point), DLKP; assay type: cell-based, human
Procedure: as §1

COR L23 R (MRP+) cells = details: doxorubicin 10 mg/ml alone or with sulindac 20 mg/ml, 1, 2, 4 h, FIG. 3
Procedure: (§2) 10^6 COR L23 P (parental non-MRP resistant, MRP−) or COR L23 R (MRP resistant, MRP+) cells were added to 75 cm^3 vented flasks containing HEPES buffered Rosemount Park Memorial Institute (RPMI) medium and maintained at 37° C. in a 5% CO2 atmosphere. […] After three days of growth, doxorubicin (final concentration 10 mg/ml), sulindac (final concentration 20 mg/ml) or doxorubicin and sulindac were added to individual flasks. Samples were taken after 1, 2 and 4 h. and assayed for drug content.
(§3) The contents of each flask were washed twice with 5 ml of PBS and stored at −70° C. The flasks were thawed and 100 μl of water and 100 μl of 33% silver nitrate added to each and mixed for 5 min. […]
(§4) The extract was resuspended in 50 μl of methanol in the sample vial and loaded into the HPLC autosampler. […] The mobile phases were pumped through a C18 reversed-phase Ultrasphere XL (Beckman) HPLC column (4.6×70 mm) with absorbance measured at 253 nm. […] The amount of doxorubicin and sulindac present was quantified by measuring the peak height of these drugs and the internal standard. […] The concentration of doxorubicin in the samples was calculated from the) nd development standard line using the peak height ratio. The sulindac concentrations were calculated by the same method.

OAW42-SR cell line = assay: miniaturised in vitro colorimetric cell survival assay, LRP overexpressing OAW42-SR; assay type: cell-based, human; details: vi) Adriamycin 147 ng/ml alone
Procedure: All the results presented in this Example for the DLKP, A549 and OAW42-SR cell lines were derived using the same miniaturised in vitro calorimetric assay system. On Day 1 of the assay 1000 cells/well/100 μl were plated into 96-well plates. Cells were allowed to attach overnight and cell viability was visually assessed. On Day 2 the two drugs (i.e. NSAID plus chemotherapeutic drug) to be analysed were added onto the cells. The individual drugs were added separately in 50 μl quantities (4× stocks, to take into account the dilution effect of having 200 μl final volume in each well). The drugs were left on the cells for five further days (Day 7) and cell number was determined using the acid phosphatase end-point assay which uses p-nitrophenol phosphate as substrate (Martin, A. and Clynes, M. (1991) In Vitro Dev. Biol., 27A, 183-184). On Day 7 the culture medium was removed from the cells and they were washed once with phosphate buffered saline (PBS). […] After the incubation period 50 μl of 1N NaOH was added to each well to develop the colour. The plates were then read at 405 nm (reference 620 nm) on an ELISA plate-reader. […] All results are the cell survival means ±S.D. from a minimum of three experiments.

[1] = tested on: COR L23 P (non-MRP) cells; details: doxorubicin 10 mg/ml alone or with sulindac 20 mg/ml, 1, 2, 4 h, FIG. 4
Procedure: as §2, §3, §4

[2] = tested on: GST prepared from DLKP cells; assay: total GST assay with 1-chloro-2,4-dinitrobenzene; assay type: biochemical, human; details: 0.4 mM
Procedure: The other NSAIDs were tested in a total GST assay (Habig, W. H., and Jakoby, W. B., (1981); Methods Enzymol., 77: 218-231). Total cellular GST activity was assayed, using 1-chloro-2,4-dinitrobenzene as a substrate, according to the method of Habig, W. H., and Jakoby, W. B., (1981); supra. Due to spectrophotometric interference at 340 nm, caused by the majority of the NSAIDs, the assays were all performed at 360 nm, without any apparent effect on the rate of the control reaction The results are shown in Table 5.

MRP-specific substrates = assay: screen for enhancement of toxicity of MRP substrates by NSAIDs; assay type: cell-based; details: summary statements
MRP pump = biological target: T1, MRP pump (Homo sapiens, UniProt P33527); assay: ATP-dependent transport of [3H]LTC4 into inside-out plasma membrane vesicles from HL60ADR cells; assay type: biochemical
T1 construct: inside-out plasma membrane vesicles prepared from HL60ADR cells; endogenous in cells; host or cells: HL60ADR cells (plasma membrane vesicles)
Procedure: To determine if the NSAIDs were acting directly on the MRP pump the uptake of [^3H]LTC4 into inside-out plasma membrane vesicles prepared from HL60ADR cells was examined using a rapid filtration procedure (Ishikawa,T., et al. (1994); J. Biol. Chem. 269 (46); 29085-29093). ATP-dependent transport of [^3H]LTC4 into the membrane vesicles was measured by a rapid filtration method using a Millipore sampling manifold. The membrane vesicles were thawed at 37° C. before use and kept on ice. The reaction components consisted of 0.25 M sucrose/10 mM Tris.HCl pH 7.4/1 mM ATP/10 mM MgCl2/10 mM creatine phosphate/ 110 μg/ml creatine kinase and 10 nM [^3H]LTC4, with 50 μg of the inside-out vesicle preparation, in a final volume of 110 μl. This suspension was incubated at 37° C., with gentle mixing, and aliquots, 20 μl, were taken at the indicated points. Those aliquots were diluted in 1 ml of ice-cold incubation buffer before being applied to 0.22 μm Millipore GSWP nitrocellulose filters, pre-soaked in ice-cold incubation buffer, under suction. The filters were subsequently washed with 3 ml ice-cold incubation buffer, and absorbed radioactivity was measured using a scintillation counter (Beckman). In control experiments ATP was replaced with 5μ-AMP to determine the ATP-dependent transport.

HL-60ADR cells = assay: etoposide-induced apoptosis (nuclear fragmentation), HL-60ADR; assay type: cell-based; details: HL-60ADR (resistant); etoposide alone or co-treated with sulindac; FIG. 1
Procedure: An experiment was carried out to determine the effect of the NSAID sulindac on etoposide-induced apoptosis in two cell lines, namely HL-60S and HL-60ADR. These cell lines were donated by Dr. Melvin Center, Kansas State University, Manhattan Kans. 66506, U.S.A. For the HL-60S and ADR cell lines the percentage of apoptotic cells within the cell population, following drug exposure, was used to quantify toxicity. Cells were plated in fresh medium at a concentration of 10^6 cells/ml in a 24-well plate (Greiner) and drugs were then added to the wells. A 200 μl sample from each well was taken after 4 and 8 hrs. Samples were cytospun for 2 min at 500 rpm using a Shandon Cytofuge3. After air-drying the cytospins were stained using a Romanowsky staining kit, Rappi-Diff II (Langanbach), dried and mounted in DPX (BDH). Slides were studied on an Optiphot microscope (Nikon) fitted with a 40× objective, and visualised on a monitor via a Mitsubishi CCD-100E colour CCD-camera and a 0.6× relay lens. Nuclear fragmentation was used as a morphological marker for apoptosis and a minimum of 200 cells were assessed in at least three different microscopic fields. Results were expressed as the percentage of apoptotic cells within the population. Each experiment was repeated in duplicate.

DLKP-A cell line = assay: miniaturised in vitro colorimetric cell survival assay, P-170 overexpressing DLKP-A; assay type: cell-based, human; details: v) Vincristine 1.0 μg/ml alone
Procedure: All the results presented in this Example for the DLKP, A549 and OAW42-SR cell lines were derived using the same miniaturised in vitro calorimetric assay system. On Day 1 of the assay 1000 cells/well/100 μl were plated into 96-well plates. Cells were allowed to attach overnight and cell viability was visually assessed. On Day 2 the two drugs (i.e. NSAID plus chemotherapeutic drug) to be analysed were added onto the cells. The individual drugs were added separately in 50 μl quantities (4× stocks, to take into account the dilution effect of having 200 μl final volume in each well). The drugs were left on the cells for five further days (Day 7) and cell number was determined using the acid phosphatase end-point assay which uses p-nitrophenol phosphate as substrate (Martin, A. and Clynes, M. (1991) In Vitro Dev. Biol., 27A, 183-184). On Day 7 the culture medium was removed from the cells and they were washed once with phosphate buffered saline (PBS). After washing, 100 μl of freshly prepared substrate-containing buffer (0.1% Triton X-100 in 0.1M sodium acetate, pH 5.5) was added to each well and the plates were left in an incubator at 37° C. for 2 h. After the incubation period 50 μl of 1N NaOH was added to each well to develop the colour. The plates were then read at 405 nm (reference 620 nm) on an ELISA plate-reader.
In the results given below the % cell survival in the drug-free control is 100%. All results are the cell survival means ±S.D. from a minimum of three experiments.
v) is an example of a positive NSAID plus a positive drug on a P-170 overexpressing cell line: DLKP-A;

T1 sequence (P33527 whole entry): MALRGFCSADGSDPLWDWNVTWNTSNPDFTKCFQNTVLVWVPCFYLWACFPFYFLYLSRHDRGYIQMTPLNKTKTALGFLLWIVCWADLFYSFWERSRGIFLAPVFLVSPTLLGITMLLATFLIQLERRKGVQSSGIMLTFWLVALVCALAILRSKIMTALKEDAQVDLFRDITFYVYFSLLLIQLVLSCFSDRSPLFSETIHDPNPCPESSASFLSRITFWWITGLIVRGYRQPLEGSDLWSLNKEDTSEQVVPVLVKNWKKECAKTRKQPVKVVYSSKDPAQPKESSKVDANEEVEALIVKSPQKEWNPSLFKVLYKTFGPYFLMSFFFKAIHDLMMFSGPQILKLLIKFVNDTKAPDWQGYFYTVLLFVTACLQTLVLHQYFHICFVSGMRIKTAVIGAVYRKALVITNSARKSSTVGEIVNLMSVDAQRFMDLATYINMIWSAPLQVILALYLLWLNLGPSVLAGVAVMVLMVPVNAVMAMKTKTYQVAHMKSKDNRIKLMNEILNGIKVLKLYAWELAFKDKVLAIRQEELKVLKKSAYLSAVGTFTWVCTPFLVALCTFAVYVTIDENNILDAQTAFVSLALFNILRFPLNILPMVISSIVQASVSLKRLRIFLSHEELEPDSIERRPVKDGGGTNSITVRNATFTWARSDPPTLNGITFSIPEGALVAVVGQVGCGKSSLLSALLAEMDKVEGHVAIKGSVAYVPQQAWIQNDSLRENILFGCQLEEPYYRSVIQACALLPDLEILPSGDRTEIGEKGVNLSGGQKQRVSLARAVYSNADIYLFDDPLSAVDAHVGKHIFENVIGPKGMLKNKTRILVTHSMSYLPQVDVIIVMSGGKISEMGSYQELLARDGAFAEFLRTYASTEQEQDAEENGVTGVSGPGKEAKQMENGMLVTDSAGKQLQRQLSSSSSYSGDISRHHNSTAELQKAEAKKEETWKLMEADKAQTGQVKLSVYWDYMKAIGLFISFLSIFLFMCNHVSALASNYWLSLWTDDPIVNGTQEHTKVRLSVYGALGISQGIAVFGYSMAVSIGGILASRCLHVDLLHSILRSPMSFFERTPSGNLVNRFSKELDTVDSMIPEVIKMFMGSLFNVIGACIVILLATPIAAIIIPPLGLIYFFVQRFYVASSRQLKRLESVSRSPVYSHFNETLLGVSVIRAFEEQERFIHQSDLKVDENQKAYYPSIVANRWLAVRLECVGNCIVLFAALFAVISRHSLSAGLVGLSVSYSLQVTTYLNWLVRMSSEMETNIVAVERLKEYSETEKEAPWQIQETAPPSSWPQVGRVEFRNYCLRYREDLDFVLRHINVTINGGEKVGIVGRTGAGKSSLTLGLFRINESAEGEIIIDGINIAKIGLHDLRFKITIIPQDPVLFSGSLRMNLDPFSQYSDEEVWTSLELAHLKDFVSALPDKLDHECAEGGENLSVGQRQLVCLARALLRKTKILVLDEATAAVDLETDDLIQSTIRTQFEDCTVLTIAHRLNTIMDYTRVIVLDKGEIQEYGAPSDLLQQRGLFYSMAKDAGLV

SMILES: COc1cccc2c1C(=O)c1c(O)c3c(c(O)c1C2=O)C[C@@](O)(C(=O)CO)C[C@@H]3O[C@H]1C[C@H](N)[C@H](O)[C@H](C)O1 [Adriamycin, adriamycin]
- viability at 0.04 µg/mL (A549 cell line; Homo sapiens, A549, 120 h, ix) Adriamycin 40 ng/ml alone): 54 ± 6.05%
- viability at 0.015 µg/mL (A549 cell line; Homo sapiens, A549, 120 h, viii) Adriamycin 15 ng/ml alone): 61 ± 5.05%
- viability at 0.015 µg/mL (A549 cell line; Homo sapiens, A549, 120 h, x) Adriamycin 15 ng/ml alone): 47 ± 5.15%
- viability at 0.04 µg/mL (A549 cell line; Homo sapiens, A549, 120 h, xi) Adriamycin 40 ng/ml alone): 46 ± 5.05%
- viability at 0.015 µg/mL (A549 cell line; Homo sapiens, A549, 120 h, xii) Adriamycin 15 ng/ml alone): 70.7 ± 4.25%
- viability at 0.015 µg/mL (A549 cell line; Homo sapiens, A549, 120 h, xiii) Adriamycin 15 ng/ml alone): 68 ± 5.82%
- viability at 0.02 µg/mL (A549 cell line; Homo sapiens, A549, 120 h, xiv) Adriamycin 20 ng/ml alone): 78 ± 3.95%
- viability at 0.015 µg/mL (A549 cell line; Homo sapiens, A549, 120 h, xv) Adriamycin 15 ng/ml alone): 89 ± 11.9%
- viability at 0.017 µg/mL (A549 cell line; Homo sapiens, A549, 120 h, xvi) Adriamycin 17 ng/ml alone): 76.7 ± 5.4%
- mice surviving to the end of the experiment (SP2 mouse myeloma cells): Two
- % cell survival (DLKP cell line; i) Adriamycin 10 ng/ml alone): 60.35 ± 3.2%
- doxorubicin level in the cells (COR L23 R (MRP+) cells): less doxorubicin is found in the cells
- % cell survival (OAW42-SR cell line): 47.41 ± 1.3%
- doxorubicin level in the cells [1]: high levels of doxorubicin are found in the cell

SMILES: Cc1ccc(C(=O)c2ccc(CC(=O)O)n2C)cc1 [Tolmetin, tolmetin]
- % cell survival (A549 cell line; xiv) Tolmetin 8.50 μg/ml): 91.84 ± 10.99%
- % cell survival (A549 cell line; xiv) Tolmetin 14.10 μg/ml): 97.59 ± 9.85%
- % cell survival (A549 cell line; xiv) Tolmetin 24.20 μg/ml): 99.24 ± 10.35%
- mice surviving to the end of the experiment (SP2 mouse myeloma cells): all but one from group 3 were dead
- % Inhibition of GST [2]: 55%
- enhancement of toxicity of MRP substrates (MRP-specific substrates): have been found to enhance the toxicity of MRP-specific substrates
- % cell survival (DLKP cell line; i) Tolmetin 6.25 μg/ml, alone or + Adriamycin 10 ng/ml): 104.38 ± 6.8%
- % cell survival (DLKP cell line; i) Tolmetin 12.5 μg/ml, alone or + Adriamycin 10 ng/ml): 104.23 ± 6.2%
- % cell survival (DLKP cell line; i) Tolmetin 25 μg/ml, alone or + Adriamycin 10 ng/ml): 100.49 ± 7.3%
- inhibition at 432 µM (MRP pump; 0.432 mM): 22%
- inhibition at 863 µM (MRP pump; 0.863 mM): 50%

SMILES: COc1cc([C@@H]2c3cc4c(cc3[C@@H](O[C@@H]3O[C@@H]5CO[C@@H](C)O[C@H]5[C@H](O)[C@H]3O)[C@H]3COC(=O)[C@H]23)OCO4)cc(OC)c1O [VP-16, etoposide]
- etoposide-induced apoptosis, percentage of apoptotic cells (HL-60ADR cells): only a basal level of apoptosis is seen
- % cell survival (DLKP cell line; iii) VP-16 100 ng/ml alone): 63.46 ± 1.4%

SMILES: CC[C@]1(O)C[C@H]2CN(CCc3c([nH]c4ccccc34)[C@@](C(=O)OC)(c3cc4c(cc3OC)N(C=O)[C@H]3[C@@](O)(C(=O)OC)[C@H](OC(C)=O)[C@]5(CC)C=CCN6CC[C@]43[C@@H]65)C2)C1 [Vincristine, vincristine]
- % cell survival (DLKP cell line; ii) Vincristine 1.0 ng/ml alone): 72.98 ± 3.5%
- % cell survival (DLKP-A cell line): 89.12 ± 1.3%
